# Experimental data from patent US10875891B2, “Short synthetic peptide and uses thereof” (MacKay Memorial Hospital, priority 2018, dated 2020).
# Entries after “also recorded” stand apart in the source; their conditions may differ. Where no end group is shown, it is not given here.
# What was measured:
# myeloma RPMI 8226 cell = assay: MTT assay, cell viability; format: cell-based, human; settings: 20 μM peptide, 24 h, serum-free RPMI1640; FIGS. 1-2
# Procedure: The multiple myeloma line RPMI8226 or […] Raw264.7 macrophages were cultivated in complex medium (RPMI1640) supplemented with 10% (vol/vol) heat-inactivated fetal calf serum (Invitrogen), 50 μg/mL penicillin, 50 μg/mL streptomycin, and 2 mM L-glutamine at 37° C. in a 5% CO2 atmosphere
# RPMI8226 cells or U266 cells were cultured in serum-free RPMI1640 medium for 24 h, and then cells seeded in 48-well culture plates (3×10^5 cells/well) and cultured in 0.5 ml fresh serum-free RPMI1640 medium containing 20 μM peptide for further 24 h. The cell viability was determined by the MTT assay.
# 50 μL of the MTT stock solution (5 mg MTT dissolved in 1 ml of sterile PBS) was added to each well, and 50 μL of the MTT stock solution was added to 500 μL of medium alone and used as a negative control. Each sample was Incubates at 37° C. for 4 hours. Aliquots (450 μl) from each sample were taken to a new well of 48-well culture plate, adding 100 μL DMSO, mixing thoroughly using the pipette and reacted at 37° C. for 20 min and absorbance was measured at 570 nm.
# RPMI8226 cells [1] = assay: Trypan blue exclusion assay; format: cell-based, human; settings: vs solvent (DMSO) 7.5±1.3, FIG. 5
# Procedure: (§1) The multiple myeloma line RPMI8226 or rat Raw264.7 macrophages were cultivated in complex medium (RPMI1640) supplemented with 10% (vol/vol) heat-inactivated fetal calf serum (Invitrogen), 50 μg/mL penicillin, 50 μg/mL streptomycin, and 2 mM L-glutamine at 37° C. in a 5% CO2 atmosphere RPMI8226 cells or U266 cells were cultured in serum-free RPMI1640 medium for 24 h, and then cells seeded in 48-well culture plates (3×10^5 cells/well) and cultured in 0.5 ml fresh serum-free RPMI1640 medium containing 20 μM peptide for further 24 h. The cell viability was determined by the MTT assay. The cells were examined under a microscope with the aid of a hemacytometer, in which 0.1 mL of trypan blue stock solution (0.4% solution of trypan blue in isotonic salt buffer solution, pH 7.2) was added to 1 mL cell suspension, and loaded therein. The number of blue staining cells (considered non-viable) and the number of total cells were respectively counted. Cell viability should be at least 95% for healthy log-phase cultures.
# [2] = system: Murine psoriasis vulgaris-like skin inflammation model; assay: IMQ-induced psoriasis vulgaris-like skin inflammation model, keratinocyte proliferation by BrdU incorporation; format: in vivo, BALB/c mice
# Procedure: (§2) BALB/c mice (8-weeks old females; n=42) were used in this model system. […] Accordingly, in this model, each BALB/c mice received a daily topical dose (62.5 mg) of commercially available IMQ cream (Imiquimod Cream 5% w/w, Aldara™) on the shaved back and the right ear for 6 consecutive days (n=6); whereas the control mice (normal group) were treated with a control cream (n=6). For treatment, each test peptide was mixed with IMQ cream to give a concentration of 25 μM (n=6 per group). Keratinocyte proliferation was determined by BrdU incorporation. BrdU (Sigma-Aldrich) was reconstituted in DMSO as a stock solution of 80 mM. 10 μl of BrdU mixed with 90 μl of PBS was intraperitoneally injected into each mouse for 24 hr prior to euthanasia.
# (§3) Slides were blocked with 10% goat serum for 60 min and then incubated with primary antibody against BrdU (1:50 dilution; GTX42641) for 3 hr at RT. The slides were then incubated with peroxidase-labeled donkey immunoglobulin for 30 min and then incubated with chromogen substrate (3,3′-diaminobenzidine) for 2 min before counterstaining with hematoxylin. Quantification was estimated based on high quality images (1208×960 pixels buffer) captured using a Nikon Eclipse 80i light microscope.
# Murine dry eye model [3] = assay: Dry eye animal model, fluorescein eye stain test for corneal injuries; format: in vivo, C57BL/6 mice; settings: peptide 50 μM topically three times a day for 4 days
# Procedure: (§4) C57BL/6 mice (7-8 weeks old, each weighted about 18 to 25 g) were used in this model system. All mice were maintained in the animal facility in accordance with the procedures approved by Mackay Memorial Hospital Review Board (Taiwan, R.O. C.). All animal experimental procedures were conducted according to the ARVO Statement for the Use of Animals in Ophthalmic and Vision Research.
# (§5) Dry eyes were induced by placing mice in a controlled environment chamber (CEC) for 14 days in accordance with procedures previously described by Barabino et al (IVOS (2005) 46(8), 2766-2771). Mice placed in the CEC were exposed to a condition, in which relative humidity (RH) was maintained at <25%, temperature at 20-22° C., and airflow at about 15 L/min, for 12 hours per day. Control mice were kept in a normal environment (RH>50%, no air flow, temperature of 20-22° C.) for the same duration.
# (§6) A common artificial tear formulation, 1% carboxymethylcelllulose (CMC) dissolved in balanced salt solution (BSS) was used as the peptide vehicle. Peptide (50 μM) or 1% CMC vehicle was topically administered to eyes three times a day, for 4 days.
# Corneal epithelial injury was determined by staining with topical fluorescein (100 mg/ml or 10%; FLUORESCITE™, Alcon Laboratories). For dosing, topical fluorescein (0.6 μL of 0.5% sodium fluorescein dissolved in 4.4 μL BSS per eye) was applied via a micro-pipette to the lateral canthus for 15 sec. Corneal fluorescein staining was examined with a slit-lamp biomicroscope under cobalt blue light and photographed with a digital camera. Data is presented as mean±SD. Dye staining of the cornea was scored in a blinded manner as follows: score 0 for no punctuate staining; score 1 when less than one third of the cornea was stained; score 2 when two thirds or less was stained; and score 3 when more than two thirds was stained.
# U266 cells = assay: Trypan blue exclusion assay; format: cell-based, human; settings: vs solvent (DMSO) 8.7±1.1, FIG. 5
# Procedure: as §1, with “RPMI8226” for “The multiple myeloma line RPMI8226 or rat Raw264.7 macrophages were cultivated in complex medium (RPMI1640) supplemented with 10% (vol/vol) heat-inactivated fetal calf serum (Invitrogen), 50 μg/mL penicillin, 50 μg/mL streptomycin, and 2 mM L-glutamine at 37° C. in a 5% CO2 atmosphere RPMI8226”
# RPMI8226 cells [4] = assay: Annexin V/propidium iodide apoptosis by flow cytometry; format: cell-based, human; settings: treatment for 24 hr; control untreated cells less than 15%; FIG. 6
# Procedure: Annexin V/propidium iodide (PI) staining was performed using flow cytometry according to the manufacturer's guidelines (Annexin V-FITC Apoptosis Detection kit; Roche). Briefly, 0.5×10^6 cells were washed in ice-cold PBS without Ca^2+ or Mg^2+ (Life Technologies). The cells were then re-suspended in 100 μl of binding buffer and incubated with 5.0 μl of PI and 2.0 μl of annexin V-fluorescein isothiocynate for 15 min in the dark at room temperature. Flow cytometric analysis was immediately performed using a FACScalibur Instrument (Becton Dickinson).
# Murine dry eye model [5] = assay: Dry eye animal model, tear production by phenol red thread test; format: in vivo, C57BL/6 mice; settings: treated for 4 days; P<0.01 versus vehicle treatment; FIG. 4
# Procedure: as §4, §5, §6
# Tear production was measured with phenol red-impregnated cotton threads (Zone-Quick; Oasis, Glendora, Calif.). The validity of this test in mice was performed as previously described (Dursun et al., Invest Ophthalmol Vis Sci. 2002; 43:632-8). The threads were held with jeweler forceps and placed in the lateral canthus for 60 seconds. The tear production expressed in millimeters of thread wet by the tear and turned red.
# [6] = system: Murine psoriasis vulgaris-like skin inflammation model; assay: IMQ-induced psoriasis vulgaris-like skin inflammation model, H&E histology of back skin; format: in vivo, BALB/c mice
# Procedure: as §2
# Back skin of the mouse was fixed overnight in 4% paraformaldehyde, dehydrated with graded ethanol series, and paraffinized. Fixed samples were deparaffinized in xylene and rehydrated in a graded series of ethanol. Tissues were sliced into 5-μm sections. General histology was performed using hematoxylin and eosin (H&E) (Merck, Rayway, N.J., USA).
# as §3
# [7] = system: Murine psoriasis vulgaris-like skin inflammation model; assay: IMQ-induced psoriasis vulgaris-like skin inflammation model, skin appearance; format: in vivo, BALB/c mice; settings: 25 μM with IMQ cream, topical daily, six consecutive days; FIG. 7
# Procedure: as §2
substance,measurement,setting,value
"NH2-Asp-Ile-Thr-Tyr-Val-Arg-Leu-Lys-Phe-COOH (DITYVRLKF; not fully specified (N-terminus, C-terminus); printed as NH2-Asp-Ile-Thr-Tyr-Val-Arg-Leu-Lys-Phe-COOH) [9-mer, short synthetic peptide …]",myeloma RPMI 8226 cell viability (MTT assay),myeloma RPMI 8226 cell,successfully suppressed myeloma RPMI 8226 cell viability; also recorded: effective in suppressing myeloma cell viability
same,cell viability by trypan blue assay,RPMI8226 cells [1],59.7±4.5
same,"hyperproliferation of keratinocytes, BrdU-positive cells in the epidermis (labeling index)","[2]; 25 μM with IMQ cream, day 6, IMQ control 24.5±2.0, FIG. 9 panel B",8.3±1.4%
same,location of BrdU-positive cells in the epidermis,"[2]; day 6 after IMQ treatment, FIG. 9 panel A",restrict to the basal layer of the epidermis
same,reduction in mean corneal fluorescein staining score compared with vehicle treated control mice,Murine dry eye model [3]; FIG. 3 panel B,about 3 fold
same,"corneal fluorescein stain (corneal damage), result in words",Murine dry eye model [3]; vs vehicle,reduced significantly
same,cell viability by trypan blue assay,U266 cells,47.0±4.6
same,myeloma cells exhibiting apoptotic phosphatidylserine exposure (annexin-V staining),RPMI8226 cells [4],approximately 54%
same,tear volume (tear production),Murine dry eye model [5],significantly increased
same,"acanthosis, quantified epidermal thickness","[6]; 25 μM with IMQ cream, 6 days, IMQ control 122±10.5, FIG. 8 panel B",39.2±2.7 μm
same,"acanthosis and desquamation in skin sections (H&E staining), result in words","[6]; vs IMQ-treated skin sections, FIG. 8 panel A",decrease in acanthosis and less desquamation
same,skin inflammation and desquamation,[7],reduced level of dosal skin inflammation and desquamation
